Laboratory results from ChEMBL document CHEMBL4334495, “Design and Biological Evaluation of m-Xylene Thioether-Stapled Short Helical Peptides Targeting the HIV-1 gp41 Hexameric Coiled-Coil Fusion Complex” (J Med Chem, 2019).
Active and inactive are the calls of the source. The rule behind the calls is not given here. Starred links: 1 amine or outer side, 2 acyl side, 3 side chain; linkers in the order of their positions; H or OH if unused. Positions of bridges follow the written chain, without caps; N, C: chain ends. Non-standard residues stand in square brackets, D forms with d. Residues, ends and D or L forms follow the SMILES beside them. ξ: configuration not given here. mXylylene = c1cc(C[*:1])cc(C[*:2])c1; ξhCys = NC(CCS)C(=O)O

How the values were obtained:
[1] = tested on: Human immunodeficiency virus 1; test: Antiviral activity against R5 tropic HIV-1 subtype-B Bal infected in human MT2 cells or CEMx174 5.25 M7 cells assessed as reduction in p24 Gag protein production measured at 4 days post-infection by ELISA; type: functional, cell-based, HIV-1 group M; details: Human immunodeficiency virus 1, Bal, 96 h
[2] = tested on: Human immunodeficiency virus 1; test: Antiviral activity against X4 tropic HIV-1 subtype-B 3B infected in human MT2 cells or CEMx174 5.25 M7 cells assessed as reduction in p24 Gag protein production measured at 4 days post-infection by ELISA; type: functional, cell-based, HIV-1 group M; details: Human immunodeficiency virus 1, 3B, 96 h
[3] = target: Envelope glycoprotein gp160 (Human immunodeficiency virus 1) (UniProt Q6QLK5); test: Binding affinity to HIV1 GP41 using GP41 NHR derived N36 peptide assessed as melting temperature at 10 uM incubated for 30 mins by CD spectroscopy
Sequence of Envelope glycoprotein gp160 (Human immunodeficiency virus 1) (Q6QLK5 1-814): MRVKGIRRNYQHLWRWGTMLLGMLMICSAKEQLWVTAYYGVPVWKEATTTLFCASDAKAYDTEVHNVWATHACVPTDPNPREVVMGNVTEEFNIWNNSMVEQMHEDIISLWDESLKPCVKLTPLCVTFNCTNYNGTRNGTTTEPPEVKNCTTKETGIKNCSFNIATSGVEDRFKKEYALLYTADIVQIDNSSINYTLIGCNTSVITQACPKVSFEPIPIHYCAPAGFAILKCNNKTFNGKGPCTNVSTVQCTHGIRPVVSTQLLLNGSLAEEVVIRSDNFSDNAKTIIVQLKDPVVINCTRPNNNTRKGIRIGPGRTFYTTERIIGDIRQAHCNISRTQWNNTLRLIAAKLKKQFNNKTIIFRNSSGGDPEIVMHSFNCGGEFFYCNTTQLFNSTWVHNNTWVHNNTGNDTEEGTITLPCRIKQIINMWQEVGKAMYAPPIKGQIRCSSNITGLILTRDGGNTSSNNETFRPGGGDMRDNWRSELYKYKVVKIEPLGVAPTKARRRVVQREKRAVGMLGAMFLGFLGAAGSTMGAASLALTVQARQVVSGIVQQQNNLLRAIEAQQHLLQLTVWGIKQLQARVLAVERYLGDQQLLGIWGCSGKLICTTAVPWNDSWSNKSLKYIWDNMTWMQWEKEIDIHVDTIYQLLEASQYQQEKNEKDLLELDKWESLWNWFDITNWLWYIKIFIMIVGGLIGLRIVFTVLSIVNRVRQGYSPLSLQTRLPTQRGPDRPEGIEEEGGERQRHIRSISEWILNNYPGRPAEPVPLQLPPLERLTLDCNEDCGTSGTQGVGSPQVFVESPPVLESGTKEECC

[4] = Cytotoxicity against human TZM-bl cells assessed as reduction in viability after 2 days by XTT assay; type: cell-based
[5] = target: Envelope glycoprotein gp160 (Human immunodeficiency virus 1) (UniProt Q6QLK5); test: Binding affinity to HIV1 GP41 using GP41 NHR derived N36 peptide assessed as molecular weight at 150 uM incubated for 30 mins by sedimentation Velocity analysis
[6] = target: Envelope glycoprotein gp160 (Human immunodeficiency virus 1) (UniProt Q6QLK5); test: Binding affinity to HIV1 GP41 using GP41 NHR derived N36 peptide assessed as formation of secondary structure at 10 uM incubated for 30 mins by CD spectroscopy
[7] = target: Envelope glycoprotein gp160 (Human immunodeficiency virus 1) (UniProt Q6QLK5); test: Binding affinity to HIV1 GP41 using GP41 NHR derived N36 peptide assessed as formation of oligomeric complex at 100 uM incubated for 30 mins by Coomassie blue R250 staining based Native-PAGE analysis
[8] = target: Envelope glycoprotein gp160 (Human immunodeficiency virus 1) (UniProt Q6QLK5); test: Binding affinity to HIV1 GP41 using GP41 NHR derived N36 peptide at 500 uM incubated for 30 mins by size exclusion HPLC analysis

EC50 [1] [nM]	EC50 [2] [nM]	Tm [3] [°C]	Activity [5] [kDa]	Activity [6]	Activity [7]	Activity [8]	Compound	CC50 at 48 h [4] [nM]
27.7	18.4	56.9	18.7	Active	Active	Active	CC[C@H](C)[C@H](NC(C)=O)C(=O)N[C@@H](CCC(=O)O)C(=O)N[C@@H](C)C(=O)N[C@@H](CC(C)C)C(=O)N[C@H](C(=O)NC1CCSCc2cccc(c2)CSCCC(C(=O)N[C@@H](CCC(N)=O)C(=O)N[C@@H](CCC(N)=O)C(=O)N[C@@H](CCCNC(=N)N)C(=O)N[C@@H](CCCCN)C(=O)N[C@@H](CC(N)=O)C(=O)N[C@@H](CCC(=O)O)C(=O)N[C@@H](CCC(=O)O)C(=O)N[C@@H](C)C(=O)N[C@@H](CC(C)C)C(=O)N[C@@H](CCCNC(=N)N)C(=O)N[C@@H](CCC(=O)O)C(=O)N[C@@H](CC(C)C)C(N)=O)NC(=O)[C@H](CCC(N)=O)NC(=O)[C@H](C)NC(=O)[C@H](C)NC1=O)[C@@H](C)CC (stereo partly specified) (Ac-IEALI[ξhCys]AAQ[ξhCys]QQRKNEEALREL-NH2; linker 6-10 via mXylylene)	> 800000
69.1	44.4	52.4	8.4	Active	Active	Active	CC[C@H](C)[C@H](NC(C)=O)C(=O)N[C@@H](CCC(=O)O)C(=O)N[C@@H](C)C(=O)N[C@@H](CC(C)C)C(=O)N[C@H](C(=O)NC1CCSCc2cccc(c2)CSCCC(C(=O)N[C@@H](CCC(N)=O)C(=O)N[C@@H](CCC(N)=O)C(=O)N[C@@H](CCC(=O)O)C(=O)N[C@@H](CCCCN)C(=O)N[C@@H](CC(N)=O)C(=O)N[C@@H](CCC(=O)O)C(=O)N[C@@H](C)C(=O)N[C@@H](C)C(=O)N[C@@H](CC(C)C)C(=O)N[C@@H](CCCNC(=N)N)C(=O)N[C@@H](CCC(=O)O)C(=O)N[C@@H](CC(C)C)C(N)=O)NC(=O)[C@H](CCC(N)=O)NC(=O)[C@H](C)NC(=O)[C@H](C)NC1=O)[C@@H](C)CC (stereo partly specified) (Ac-IEALI[ξhCys]AAQ[ξhCys]QQEKNEAALREL-NH2; linker 6-10 via mXylylene)	–
–	–	48.2	–	–	–	–	Ac-IEALIRAAQEQQEKNEAALREL-NH2	–
